According to publication PMC12817916, “A small-molecule HSP90 inhibitor, NVP-HSP990, alleviates rotavirus infection” (Journal of Virology, 2025):

Assays:
RV SA11 strain = experiment: RV SA11 diarrhea model in suckling mice; assay type: in vivo, BALB/c suckling mice; conditions: for infectious RV particles and viral antigens in intestinal contents, transcription of RV VP6 in intestinal epithelial cells: compared to controls
Protocol: BALB/c mice were purchased from Gempharmatech Inc. (Suzhou, China) and housed under SPF conditions (22 ± 1°C, 12 h light/dark cycle). Suckling mice were obtained by mating male and female adult BALB/c mice (12- to 16-week-old). Only the 7-day-old BALB/c suckling mice with body weights ranging from 2.5 g to 4.5 g were selected for RV diarrhea models. For induction of RV diarrhea, 1 × 10^6 PFU of SA11 strain or 10 × DD50 of EDIM strain in 20 µL PBS was orally inoculated using a pipette tip to 7-day-old BALB/c suckling mice regardless of their sexes, as sex has no significant influence on RV diarrhea occurrence. We used a scoring system to evaluate fecal consistency and color as described with some modification ([27]): no stool or brown formed stool (1 point); brown soft stool (2 points); yellow soft stool (3 points); and yellow watery stool (4 points). Mice with scores of ≥2 meant diarrhea occurrence, while mice with scores of 1 meant no diarrhea. At the end of each experiment, all infected or drug-treated suckling mice were humanely euthanized via CO2 asphyxiation.
Seven-day-old BALB/c suckling mice meeting the weight criteria within each litter were randomly assigned to experimental groups. Each litter was allocated to ensure one to three suckling mice per experimental group (variations dependent on the total number of groups). Data from suckling mice assigned to the same group across multiple litters were aggregated to achieve a total sample size of n = 3–6 per experimental group. Then, the suckling mice were orally inoculated with 1 × 10^6 PFU of the SA11 strain or 10 × DD50 of the EDIM strain, or with an equal amount of PBS as mock infection. For SA11 infection, the suckling mice were orally treated once with indicated doses of drugs or with an equal volume of DMSO as control at 2 h p.i. For EDIM infection, the suckling mice were orally treated with 0.2 mg/kg/day NVP-HSP990, 30 mg/kg/day ribavirin, or an equal amount of DMSO as control from 2 days post-infection (d p.i.) to indicated time points. Diarrhea scores and body weight were monitored from day 0 to day 7 post-infection in the SA11 infection model, and from day 0 to day 9 post-diarrhea occurrence (2–11 d p.i.) in the EDIM infection model. Blinding was applied throughout data collection and analysis.
The RV-infected suckling mice were sacrificed by CO2 asphyxiation at the indicated times, and small intestines (including duodenum, jejunum, and ileum) or colon was homogenized in 0.3 mL DMEM, centrifuged at 12,000 × g for 5 min at 4°C, and the supernatant was collected. Virus contents in the supernatant were titrated with PFA as described above. Viral antigens in the supernatant were detected with enzyme-linked immunosorbent assay (ELISA) kits for RV (CUSABIO, China) following the manufacturer’s instructions. For qPCR analysis of RV protein expression, the intestines were longitudinally split and washed in 1 mL DMEM by shaking for 30 s. Then, the tissues were cut into 0.5 cm segments, incubated in Hank’s buffer containing 2.5 mM EDTA-Na2 and 1 mM dithiothreitol (Sangon Biotech, China) at 37°C with rotation at 200 rpm for 30 min, filtered with a 70 µm strainer. Then the epithelial cells were pelleted by centrifugation at 500 × g for 5 min, purified with 20% Percoll (Cytiva, Sweden), and lysed in Trizol for RNA extraction and further qPCR analysis.
The jejunum and ileum of suckling mice were fixed in 4% paraformaldehyde for 24 h, washed with PBS twice, and then subjected to paraffin embedding and slicing at 5 µm thickness. The sections were stained with hematoxylin and eosin (Beyotime, China) and observed with an Olympus BX51 microscope, and the data were processed by CaseViewer 2.4 software. For immunohistochemistry analysis, the fixed tissues were dehydrated in 30% sucrose, embedded in Optimal Cutting Temperature compound, frozen with liquid nitrogen, and cryosliced at 10 µm thickness. […]

MA104 cells = experiment: Cytotoxicity assay (CCK-8); assay type: cell-based, Rhesus monkey; conditions: MA104 cells, 24 h, CCK-8; read-out: CC50
Protocol: (§1) To evaluate the cytotoxicity of different HSP90 inhibitors in vitro, 10,000 MA104 cells, 30,000 Caco-2 cells, and 80,000 HT-29 cells in 100 µL complete DMEM medium were seeded in 96-well plates and cultured at 37°C and 5% CO2 for 24 h to reach about 100% confluence, and a cell-free control was also set. After removing the initial medium, 100 µL of complete DMEM medium containing the indicated concentrations of drugs was added to each well, and the plates were incubated at 37°C and 5% CO2. Twenty-four hours later, the drug-containing medium was replaced with 100 µL fresh complete DMEM medium plus 10 µL 5 mM CCK-8 reagent (Beyotime, China), and OD450 absorbance of each well was detected 3 h later using a microplate reader (Gene Company Limited, China). Relative cell viability rate = OD450 (drug-treated cells − cell-free control) / OD450 (0 µM drug-treated cells − cell-free control).
(§2) The 50% cytotoxic concentration (CC50) values were determined by nonlinear regression (curve fit) analysis in GraphPad Prism 9.0 (GraphPad Software). Dose-response data (drug concentrations as X-axis and normalized cell viability percentages as Y-axis) were fitted to a Dose-response Inhibition model ("[Inhibitor] vs. normalized response-Variable slope"). The curve was constrained to a bottom limit of 0% viability. The CC50 value was automatically calculated as the X-intercept at Y=50%. Model adequacy was validated using goodness-of-fit metrics (R²≥0.95), 95% confidence intervals, and residual distribution analysis. Final CC50 values were derived from three independent biological replicates and reported as mean ± SEM.

HT-29 cells = experiment: Cytotoxicity assay (CCK-8); assay type: cell-based, Human; conditions: HT-29 cells, 24 h, CCK-8; read-out: CC50
Protocol: as §1, §2

Caco-2 cells = experiment: Cytotoxicity assay (CCK-8); assay type: cell-based, Human; conditions: Caco-2 cells, 24 h, CCK-8; read-out: CC50
Protocol: as §1, §2

[1] = 1 mg/kg oral, once, 0 to 7 days post-infection
[2] = oral, once at 2 h p.i., 24 h p.i., 1 × 10^6 PFU SA11

COc1cccc(-c2cc(F)ccc2[C@H]2Cc3nc(N)nc(C)c3C(=O)N2)n1 [NVP-HSP990]
body growth of RV-infected suckling mice (RV SA11 strain; [1]): did not hinder
diarrhea of RV-infected suckling mice (RV SA11 strain; [1]): significantly alleviated
RV-induced foamy degeneration in the ileal epithelium (RV SA11 strain; SA11-infected mice, 1 mg/kg oral, 16 h p.i., hematoxylin/eosin): markedly attenuated
infectious RV particles and viral antigens in intestinal contents, transcription of RV VP6 in intestinal epithelial cells (RV SA11 strain; duodenum, 1 mg/kg oral, 16 h p.i.): no significant differences
infectious RV particles and viral antigens in intestinal contents, transcription of RV VP6 in intestinal epithelial cells (RV SA11 strain; jejunum and ileum, 1 mg/kg oral, 16 h p.i.): remarkably reduced
pathological changes in the ileum (RV SA11 strain; mock-infected mice, NVP-HSP990 treatment alone, 1 mg/kg oral, hematoxylin/eosin): no appreciable pathological changes
ED50 for RV diarrhea occurrence (RV SA11 strain; [2]): 0.1423 mg/kg
ED50 for diarrhea score reduction (RV SA11 strain; [2]): 0.1355 mg/kg
CC50 (MA104 cells): > 100 µM
CC50 (HT-29 cells): > 100 µM
CC50 (Caco-2 cells): > 100 µM
